Measurements from paper PMC7956643, “Synthesis of Novel Pyrido[1,2-c]pyrimidine Derivatives with 6-Fluoro-3-(4-piperidynyl)-1,2-benzisoxazole Moiety as Potential SSRI and 5-HT1A Receptor Ligands” (International Journal of Molecular Sciences, 2021).
Marks after values point to notes of the source that are not given here. One block for each compound: values may come before it.

Experiments:
D2 receptors = target: T1, D2 receptors (Homo sapiens, UniProt P14416); assay: D2 radioligand binding assay; conditions: [3H]-raclopride; HEK293 cells, human receptor
T1 construct: expressed in transfected cells
T1 sequence (P14416 whole entry): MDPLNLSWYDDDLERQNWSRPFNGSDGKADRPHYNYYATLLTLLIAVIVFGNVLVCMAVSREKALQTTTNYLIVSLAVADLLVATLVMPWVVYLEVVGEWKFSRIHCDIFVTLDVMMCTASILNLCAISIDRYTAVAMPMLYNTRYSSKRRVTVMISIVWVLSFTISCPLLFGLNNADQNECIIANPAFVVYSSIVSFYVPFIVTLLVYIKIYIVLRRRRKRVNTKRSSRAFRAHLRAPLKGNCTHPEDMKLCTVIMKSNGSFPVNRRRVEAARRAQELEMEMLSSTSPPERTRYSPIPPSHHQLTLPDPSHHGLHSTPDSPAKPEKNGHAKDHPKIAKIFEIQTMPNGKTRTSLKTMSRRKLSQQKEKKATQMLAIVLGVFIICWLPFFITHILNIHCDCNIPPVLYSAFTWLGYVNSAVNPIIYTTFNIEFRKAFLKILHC
Description: (§1) In vitro radioligand binding assays for 5-HT2A, 5-HT6, 5-HT7 and D2 receptors were carried out using methods published by Zajdel et al.. For the assays, HEK293 cell cultures stably expressing the investigated human receptors were used. Cell pellets were thawed and homogenized in 20 vol of assay buffer using an Ultra Turrax tissue homogenizer, then centrifuged twice at 35000 g for 20 min at 4 °C, with incubation for 15 min at 37 °C in between. The composition of the assay buffers was as follows: for 5-HT2A receptors—50 mM Tris-HCl, 0.1 mM EDTA, 4 mM MgCl2 and 0.1% ascorbate; for 5-HT6 receptors—50 mM Tris-HCl, 0.5 mM EDTA, 4 mM MgCl2; for 5-HT7 receptors—50 mM Tris-HCl, 4 mM MgCl2, 10 µM pargyline and 0.1% ascorbate; for D2 receptors—50 mM Tris-HCl, 1 mM EDTA, 4 mM MgCl2, 120 mM NaCl, 5 mM KCl, 1.5 mM CaCl2 and 0.1% ascorbate. All assays were incubated in total volume of 200 mL in 96-well microtitre plates for 1 h at 37 °C, except for 5-HT2A receptors which were incubated at room temperature for 1.5 h. The process of equilibration was terminated by rapid filtration through Unifilter plates with a 96-well cell harvester, and radioactivity retained on the filters was quantified on a Microbeta plate reader (PerkinElmer, USA). For displacement studies, the assay samples contained as radioligands (PerkinElmer): 2 nM [^3H]-ketanserin (spec. act. 53.4 Ci/mmol) for 5-HT2A receptors; 2 nM [^3H]-LSD (spec. act. 83.6 Ci/mmol) for 5-HT6 receptors; 0.6 nM [^3H]-5-CT (spec. act. 39.2 Ci/mmol) for 5-HT7 receptors and [^3H]-raclopride (spec. act. 76.0 Ci/mmol) for D2 receptors. […] Each compound was tested in triplicate at 7–8 concentrations (10^-11-10^-4 M). The inhibition constants (Ki) were calculated from the Cheng–Prusoff equation [46]. Results were expressed as means of at least two separate experiments.

5-HT1A receptor [1] = target: T2, 5-HT1A receptor (Mus musculus, UniProt Q64264); assay: Effect of WAY-100635 on the hypothermia induced by tested compounds; type: in vivo, CD-1 mice; conditions: mice
T2 construct: from tissue; host or cells: whole animal, male CD-1 mice
T2 sequence (Q64264 1-421): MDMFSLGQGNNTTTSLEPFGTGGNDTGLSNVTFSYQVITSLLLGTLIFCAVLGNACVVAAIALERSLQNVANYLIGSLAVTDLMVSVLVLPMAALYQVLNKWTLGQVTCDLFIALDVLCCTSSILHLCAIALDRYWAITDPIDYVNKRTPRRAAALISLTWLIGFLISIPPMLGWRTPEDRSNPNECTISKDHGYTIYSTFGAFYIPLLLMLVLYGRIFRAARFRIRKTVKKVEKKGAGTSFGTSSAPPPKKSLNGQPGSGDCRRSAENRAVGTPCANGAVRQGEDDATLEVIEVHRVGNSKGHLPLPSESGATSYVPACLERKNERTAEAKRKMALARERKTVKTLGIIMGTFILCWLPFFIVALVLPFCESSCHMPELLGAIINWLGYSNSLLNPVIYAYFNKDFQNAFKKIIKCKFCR
Description: (§2) The experiments were performed on male CD-1 mice (23–40 g). The animals were kept at room temperature (21 ± 2 °C) on a natural day-night cycle (March–October) and housed under standard laboratory conditions. They had free access to food and tap water before the experiment. Each experimental group consisted of 6–8 animals/dose. All the animals were used only once. 8-Hydroxy-2-(di-n-propylamino)tetralin hydro-bromide (8-OH-DPAT, Research Biochemical Inc.) was used as aqueous solution. […] Vehicle group was administered as 10% aqueous solution of dimethyl sulphoxide (DMSO). 8-OH-DPAT was injected subcutaneously (sc); 6a and 7g were given intraperitoneally (ip) in a volume of 10 mL/kg/mice. The obtained data were analyzed by Dunnett’s test (one drug administration) or by the Newman–Keuls test (two drugs administrations). Forced swim test: the obtained data was evaluated by one-way analysis of variance (ANOVA) followed by the Dunnett’s multiple comparisons test: p < 0.05 was considered significant.
(§3) The results were expressed as a change in body temperature (Δt) with respect to the basal body temperature, as measured at the beginning of the experiment.

5-HT6 receptors = target: T3, 5-HT6 receptors (Homo sapiens, UniProt P50406); assay: 5-HT6 radioligand binding assay; conditions: [3H]-LSD; HEK293 cells, human receptor
T3 construct: expressed in transfected cells
T3 sequence (P50406 whole entry): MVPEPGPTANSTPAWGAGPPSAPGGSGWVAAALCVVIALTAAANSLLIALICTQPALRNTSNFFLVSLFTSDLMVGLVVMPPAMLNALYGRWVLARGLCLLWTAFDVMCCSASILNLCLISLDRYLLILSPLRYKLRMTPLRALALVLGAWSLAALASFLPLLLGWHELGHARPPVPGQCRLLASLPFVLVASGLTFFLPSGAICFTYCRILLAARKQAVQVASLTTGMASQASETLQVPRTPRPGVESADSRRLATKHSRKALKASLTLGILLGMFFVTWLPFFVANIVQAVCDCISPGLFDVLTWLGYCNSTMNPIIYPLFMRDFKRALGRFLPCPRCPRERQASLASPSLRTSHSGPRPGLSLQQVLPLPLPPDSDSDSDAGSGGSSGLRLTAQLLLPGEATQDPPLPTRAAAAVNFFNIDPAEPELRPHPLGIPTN
Description: as §1

5-HT7 receptors = target: T4, 5-HT7 receptors (Homo sapiens, UniProt P34969); assay: 5-HT7 radioligand binding assay; conditions: [3H]-5-CT; HEK293 cells, human receptor
T4 construct: expressed in transfected cells
T4 sequence (P34969 whole entry): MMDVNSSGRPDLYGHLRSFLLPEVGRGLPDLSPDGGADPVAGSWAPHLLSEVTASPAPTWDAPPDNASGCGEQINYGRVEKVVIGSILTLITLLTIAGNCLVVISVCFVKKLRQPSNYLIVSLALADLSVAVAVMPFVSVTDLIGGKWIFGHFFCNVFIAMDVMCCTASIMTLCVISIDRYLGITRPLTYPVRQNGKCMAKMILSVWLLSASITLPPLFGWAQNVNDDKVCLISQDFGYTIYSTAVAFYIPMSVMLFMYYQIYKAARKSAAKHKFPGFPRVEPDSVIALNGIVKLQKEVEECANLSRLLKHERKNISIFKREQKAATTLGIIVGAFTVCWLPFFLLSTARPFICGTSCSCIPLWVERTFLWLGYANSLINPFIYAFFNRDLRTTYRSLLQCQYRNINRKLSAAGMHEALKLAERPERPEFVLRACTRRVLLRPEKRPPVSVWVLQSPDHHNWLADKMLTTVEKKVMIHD
Description: as §1

5-HT1A receptor [2] = target: T2, 5-HT1A receptor; assay: Body temperature in mice (induced hypothermia); type: in vivo, CD-1 mice; conditions: mice
Description: as §2, §3

SERT protein = target: T5, SERT protein (Rattus norvegicus, UniProt P31652); assay: SERT radioligand binding assay; conditions: [3H]-citalopram 1.0 nM; rat cortex tissue
T5 construct: from tissue; host or cells: rat cortex
T5 sequence (P31652 whole entry): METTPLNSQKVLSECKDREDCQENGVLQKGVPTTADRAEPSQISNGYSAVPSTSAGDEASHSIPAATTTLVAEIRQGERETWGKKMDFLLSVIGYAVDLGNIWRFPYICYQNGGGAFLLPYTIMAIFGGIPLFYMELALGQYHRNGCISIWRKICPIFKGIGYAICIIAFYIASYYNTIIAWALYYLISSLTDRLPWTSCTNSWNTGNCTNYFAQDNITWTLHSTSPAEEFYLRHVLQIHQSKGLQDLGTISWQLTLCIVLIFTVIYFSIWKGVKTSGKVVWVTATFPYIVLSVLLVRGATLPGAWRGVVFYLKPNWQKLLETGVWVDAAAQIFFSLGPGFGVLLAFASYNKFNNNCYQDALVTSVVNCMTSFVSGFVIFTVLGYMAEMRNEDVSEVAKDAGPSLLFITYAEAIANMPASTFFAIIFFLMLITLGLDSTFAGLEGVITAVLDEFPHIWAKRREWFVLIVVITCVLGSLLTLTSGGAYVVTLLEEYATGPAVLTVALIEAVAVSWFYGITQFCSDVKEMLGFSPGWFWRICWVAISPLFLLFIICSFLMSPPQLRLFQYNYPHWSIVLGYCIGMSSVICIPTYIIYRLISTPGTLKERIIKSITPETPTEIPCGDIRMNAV
Description: Radioligand binding was performed using rat cortex tissue. All assays were carried out in duplicate. First, 50 µL working solution of the tested compounds, 50 µL [^3H]-citalopram (final concentration 1.0 nM) and 150 µL tissue suspension, prepared in assay buffer (50 mM Tris. pH 7.7; 150 mM NaCl; 5 mM KCl), were transferred to a polypropylene 96-well microplate using 96-wells pipetting station Rainin Liquidator (MettlerToledo). […] The reaction was terminated by rapid filtration through GF/B filter mate presoaked with 0.3% polyethyleneimine for 30 min. Ten rapid washes with 200 µL 50 mM Tris buffer (4 °C, pH 7.7) were performed using an automated harvester system—Harvester-96 MACH III FM (Tomtec). […] Data were fitted to a one-site curve-fitting equation with Prism 6 (GraphPad Software) and Ki values were estimated from the Cheng–Prusoff equation.

human 5-HT1A receptor = target: T6, human 5-HT1A receptor (Homo sapiens, UniProt P08908); assay: 5-HT1A radioligand binding assay; conditions: [3H]-8-OH-DPAT 1 nM; membranes from CHO-K1 cells with human 5-HT1A receptor
T6 construct: purchased PerkinElmer; host or cells: CHO-K1 cells, stably transfected
T6 sequence (P08908 1-422): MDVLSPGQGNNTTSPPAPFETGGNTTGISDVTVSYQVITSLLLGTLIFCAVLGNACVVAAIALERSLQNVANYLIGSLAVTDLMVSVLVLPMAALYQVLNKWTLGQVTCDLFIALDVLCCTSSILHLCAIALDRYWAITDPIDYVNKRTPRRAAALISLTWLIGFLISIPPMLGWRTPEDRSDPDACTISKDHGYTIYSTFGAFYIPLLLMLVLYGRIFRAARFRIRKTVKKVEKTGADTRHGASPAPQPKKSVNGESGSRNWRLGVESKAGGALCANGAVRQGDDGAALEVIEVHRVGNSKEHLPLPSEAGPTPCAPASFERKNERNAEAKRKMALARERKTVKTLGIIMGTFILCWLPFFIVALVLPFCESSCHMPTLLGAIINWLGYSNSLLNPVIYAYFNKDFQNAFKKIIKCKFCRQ
Description: Radioligand binding was performed using membranes from CHO-K1 cells stably transfected with the human 5-HT1A receptor (PerkinElmer, Fremont, CA, USA). All assays were carried out in duplicate. Then, 50 µL working solution of the tested compounds, 50 µL [^3H]-8-OH-DPAT (final concentration 1 nM) and 150 µL diluted membranes (20 µg protein per well) prepared in assay buffer (50 mM Tris, pH 7.4, 10 mM MgSO4, 0.5 mM EDTA, 0.1% ascorbic acid) were transferred to a polypropylene 96-well microplate using 96-wells pipetting station Rainin Liquidator (MettlerToledo, Columbus, OH, USA). […] The reaction was terminated by rapid filtration through GF/B filter mate, presoaked with 0.5% polyethyleneimine for 30 min. Ten rapid washes with 200 µL 50 mM Tris buffer (4 °C, pH 7.4) were performed using an automated harvester system—Harvester-96 MACH III FM (Tomtec, Hamden, CT, USA). […] Data were fitted to a one-site curve-fitting equation with Prism 6 (GraphPad Software, San Diego, CA, USA) and Ki values were estimated from the Cheng–Prusoff equation.

5-HT2A receptors = target: T7, 5-HT2A receptors (Homo sapiens, UniProt P28223); assay: 5-HT2A radioligand binding assay; conditions: [3H]-ketanserin; HEK293 cells, human receptor
T7 construct: expressed in transfected cells
T7 sequence (P28223 whole entry): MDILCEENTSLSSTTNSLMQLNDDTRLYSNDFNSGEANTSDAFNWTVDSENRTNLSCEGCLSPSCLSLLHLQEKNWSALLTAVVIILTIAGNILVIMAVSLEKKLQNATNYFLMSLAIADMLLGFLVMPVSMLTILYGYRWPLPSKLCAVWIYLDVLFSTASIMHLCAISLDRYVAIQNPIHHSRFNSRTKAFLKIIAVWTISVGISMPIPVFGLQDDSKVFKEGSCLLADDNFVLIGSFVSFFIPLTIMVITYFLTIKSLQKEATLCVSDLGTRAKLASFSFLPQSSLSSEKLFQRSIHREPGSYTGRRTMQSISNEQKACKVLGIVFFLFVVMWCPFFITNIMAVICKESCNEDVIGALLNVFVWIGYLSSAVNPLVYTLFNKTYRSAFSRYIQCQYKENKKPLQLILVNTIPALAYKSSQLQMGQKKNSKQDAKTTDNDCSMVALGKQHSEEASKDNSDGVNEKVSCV
Description: as §1, with “All assays were incubated in total volume of 200 mL in 96-well microtitre plates for 1 h at 37 °C, except for 5-HT2A receptors which were incubated at room temperature for 1.5 h.” left out

Ki (D2 receptors): 0.01 ± 0.001 µM | Δt ± SEM, body temperature (5-HT1A receptor [1]; WAY-100635 0.1 mg/kg sc 15 min before compound 1.25 mg/kg, 30 min): −1.2 ± 0.2 ^b °C | Δt ± SEM, body temperature (5-HT1A receptor [1]; WAY-100635 0.1 mg/kg sc 15 min before compound 1.25 mg/kg, 60 min): −0.7 ± 0.3 ^d °C | Δt ± SEM, body temperature (5-HT1A receptor [1]; vehicle + compound 1.25 mg/kg, 30 min): −1.5 ± 0.3 ^c °C | Δt ± SEM, body temperature (5-HT1A receptor [1]; vehicle + compound 1.25 mg/kg, 60 min): −1.7 ± 0.3 ^c °C | Ki (5-HT6 receptors): 0.4 ± 0.032 µM | melting point: 108 to 109 °C | Ki (5-HT7 receptors): 0.094 ± 0.011 µM | Induction of hypothermia in mice (5-HT1A receptor [2]): induced hypothermia | Δt ± SEM, body temperature (5-HT1A receptor [2]; 1.25 mg/kg ip, 30 min): −1.5 ± 0.3 ^b °C | Δt ± SEM, body temperature (5-HT1A receptor [2]; 1.25 mg/kg ip, 60 min): −1.7 ± 0.3 ^b °C | Δt ± SEM, body temperature (5-HT1A receptor [2]; 1.25 mg/kg ip, 90 min): −1.3 ± 0.4 ^b °C | Δt ± SEM, body temperature (5-HT1A receptor [2]; 1.25 mg/kg ip, 120 min): −1.0 ± 0.3 °C | Δt ± SEM, body temperature (5-HT1A receptor [2]; 2.5 mg/kg ip, 30 min): −2.2 ± 0.2 ^b °C | Δt ± SEM, body temperature (5-HT1A receptor [2]; 2.5 mg/kg ip, 60 min): −2.8 ± 0.3 ^b °C | Δt ± SEM, body temperature (5-HT1A receptor [2]; 2.5 mg/kg ip, 90 min): −2.9 ± 0.3 ^b °C | Δt ± SEM, body temperature (5-HT1A receptor [2]; 2.5 mg/kg ip, 120 min): −3.0 ± 0.4 ^b °C | Δt ± SEM, body temperature (5-HT1A receptor [2]; 5 mg/kg ip, 30 min): −2.1 ± 0.1 ^b °C | Δt ± SEM, body temperature (5-HT1A receptor [2]; 5 mg/kg ip, 60 min): −3.4 ± 0.3 ^b °C | Δt ± SEM, body temperature (5-HT1A receptor [2]; 5 mg/kg ip, 90 min): −3.9 ± 0.5 ^b °C | Δt ± SEM, body temperature (5-HT1A receptor [2]; 5 mg/kg ip, 120 min): −4.2 ± 0.8 ^b °C
Structure (SMILES): COc1ccc(-c2c3n(c(=O)n(CCCCN4CCC(c5noc6cc(F)ccc56)CC4)c2=O)CCCC3)cc1 [Compound 7g, 4-(4-Methoxyphenyl)-2-{4-[4-(6-fluoro-1,2-benzoxazol)-1-piperidyl]butyl}-5,6,7,8-tetrahydro-pyrido[1,2-c]pyrimidine-1,3-dione]

Ki (SERT protein): 0.048 ± 0.0024 µM | Ki (human 5-HT1A receptor): 0.005 ± 0.0005 µM | Ki (5-HT2A receptors): 0.016 ± 0.002 µM
Structure (SMILES): COc1ccc(-c2c3n(c(=O)n(CCCCN4CCC(c5noc6cc(F)ccc56)CC4)c2=O)CCCC3)cc1 [Compound 7g]

Ki (D2 receptors): 0.017 ± 0.002 µM | Ki (5-HT6 receptors): 0.74 ± 0.183 µM | Ki (SERT protein): 0.311 ± 0.035 µM | melting point: 57 to 60 °C | Ki (human 5-HT1A receptor): 0.0095 ± 0.0011 µM | Ki (5-HT7 receptors): 0.161 ± 0.027 µM | Ki (5-HT2A receptors): 0.044 ± 0.006 µM
Structure (SMILES): O=c1c(-c2ccc(F)cc2)c2n(c(=O)n1CCCCN1CCC(c3noc4cc(F)ccc34)CC1)CCCC2 [Compound 7i, 4-(4-Fluorophenyl)-2-{4-[4-(6-fluoro-1,2-benzoxazol)-1-piperidyl]butyl}-5,6,7,8-tetrahydro-pyrido[1,2-c]pyrimidine-1,3-dione]
